This is an account of results in publication PMC6631119, “Nasal Administration and Plasma Pharmacokinetics of Parathyroid Hormone Peptide PTH 1-34 for the Treatment of Osteoporosis” (Pharmaceutics, 2019).

Series [1] is described as follows: Healthy human volunteer plasma pharmacokinetics of PTH 1-34 (open cross-over, ELISA). In kind it is in vivo. To be noted: human. How it is done:
An open cross-over clinical IMP (investigative medicinal product) study was conducted in seven healthy female subjects aged over 55 years (mean age 67.7, range 58 to 81 years). Each participant provided informed consent in accordance with ethical committee requirements and good clinical practice. Pre-study screening assessments were carried out within 21 days of the participants receiving their first dose (Supplementary Materials: Section S1). Inclusion and exclusion criteria were applied (Supplementary Materials: Section S2). Participants were admitted to the study centre on the morning of dosing, having abstained from alcohol and smoking for at least 24 h previously and fasted from midnight. Participants were given a light meal on arrival. A cannula was then positioned in the participant’s arm or hand to facilitate the collection of blood samples. The pre-dose sample was taken. Participants received a single subcutaneous injection of 20 μg teriparatide into the abdomen at their first trial visit. Following a seven day wash out period, each participant self-administered 90 μg PTH 1-34 from the nasal spray formulation using the Rexam SP270 nasal spray device; the patients had previously been trained in operation of the Rexam device. Any episodes of sneezing after administration of the nasal formulation were recorded. The nasal spray formulation contained Tc-99m-DTPA, 3–5 MBq per Rexam SP270 nasal spray dose, resulting in an effective radiation dose of less than 0.14 mSv to each participant.
Following either subcutaneous or intranasal dosing, 10 mL blood samples (Becton Dickinson sodium heparin) were taken at 5, 15, 30, 60 120, 180, 240, 300 and 360 min. After each sample was taken, the cannula was flushed with 10 mL 0.9% saline. Blood was stored on ice and centrifuged within 30 min to prepare plasma (4 °C, 1100–1300 g, 10 min). These samples were stored at −20 °C before dispatching to Simbec Research Ltd. (Merthyr Tydfil, UK) for quantification by validated ELISA, in compliance with The UK Good Laboratory Practice Regulations 1999 (Statutory Instrument No. 310 6) and subsequent amendment, OECD Principles of Good Laboratory Practice (Paris 1998) and EC Commission Directive 2004/10/EC of February 2004.
Pharmacokinetic data were analysed using Phoenix® WinNonlin® 5.1 (Certara USA, Inc., Princeton, NJ, USA) from quantified PTH 1-34 in the plasma, using recorded sampling times. Summary statistics (mean, median, SD, coefficient of variation [CV%], minimum, maximum, n) and the following plasma pharmacokinetic parameters were calculated: • Cmax • Tmax • Terminal half-life (t1/2) • AUC to 2 h (AUC0–2h) • AUC to last measured time point (AUClast) and corresponding Frel for nasal formulation

The conditions of series [2]: cited from earlier work.
The conditions of series [3]: conscious rats, nasal liquid formulation with Solutol HS15 (10%), first 2 h after administration; cited from earlier work.
For series [4] the following is noted: human volunteers, nasal powder formulations with Solutol HS15 compared to subcutaneous injection of hGH; cited from earlier work. The text has this: With the aim of improving upon the pharmacokinetics of the liquid nasal spray in humans, our continued research evaluated a bioadhesive powder formulation within a large animal (ovine) model. This is a model known to be highly representative of intranasal drug delivery that closely replicates the clinical findings. […] Likewise, we have published o ...

The mark [5] stands for this setting: human, subcutaneous injection, estimated.

Where two headings read alike, the source gives them in different places. A value given as a limit tells only on which side of the number the result lay.

Consider `CC[C@H](C)[C@H](NC(=O)[C@H](CCC(=O)O)NC(=O)[C@H](CO)NC(=O)[C@@H](NC(=O)[C@@H](N)CO)C(C)C)C(=O)N[C@@H](CCC(N)=O)C(=O)N[C@@H](CC(C)C)C(=O)N[C@@H](CCSC)C(=O)N[C@@H](Cc1cnc[nH]1)C(=O)N[C@@H](CC(N)=O)C(=O)N[C@@H](CC(C)C)C(=O)NCC(=O)N[C@@H](CCCCN)C(=O)N[C@@H](Cc1cnc[nH]1)C(=O)N[C@@H](CC(C)C)C(=O)N[C@@H](CC(N)=O)C(=O)N[C@@H](CO)C(=O)N[C@@H](CCSC)C(=O)N[C@@H](CCC(=O)O)C(=O)N[C@@H](CCCN=C(N)N)C(=O)N[C@H](C(=O)N[C@@H](CCC(=O)O)C(=O)N[C@@H](Cc1c[nH]c2ccccc12)C(=O)N[C@@H](CC(C)C)C(=O)N[C@@H](CCCN=C(N)N)C(=O)N[C@@H](CCCCN)C(=O)N[C@@H](CCCCN)C(=O)N[C@@H](CC(C)C)C(=O)N[C@@H](CCC(N)=O)C(=O)N[C@@H](CC(=O)O)C(=O)N[C@H](C(=O)N[C@@H](Cc1cnc[nH]1)C(=O)N[C@@H](CC(N)=O)C(=O)N[C@@H](Cc1ccccc1)C(=O)O)C(C)C)C(C)C` [teriparatide], for which the time of peak concentration (Tmax) in series [1] (female, plasma, sc, 20 ug, healthy female volunteers aged over 55 y, single 20 μg teriparatide subcutaneous injection into abdomen (Forsteo pen), plasma ELISA, mean of n = 7) is 21.4 min. Further, in series [1] (female, plasma, sc, 20 ug, healthy female volunteers aged over 55 y, single 20 μg teriparatide subcutaneous injection into abdomen (Forsteo pen), plasma ELISA, mean of n = 7, read-out: AUC0–2h (converted)), the AUC(0-t) is 0.29 ng·h/mL. Also, the AUC(0-t) in series [1] (female, plasma, sc, 20 ug, healthy female volunteers aged over 55 y, single 20 μg teriparatide subcutaneous injection into abdomen (Forsteo pen), plasma ELISA, mean of n = 7, read-out: AUC0–last (converted)) is 0.345 ng·h/mL. For the same compound, the Cmax in series [1] (female, plasma, sc, 20 ug, healthy female volunteers aged over 55 y, single 20 μg teriparatide subcutaneous injection into abdomen (Forsteo pen), plasma ELISA, mean of n = 7, read-out: Cmax) was 0.253 ng/mL. Also, the “time by which teriparatide concentrations returned to zero” value in series [1] (20 μg teriparatide subcutaneous injection) is recorded as not above 6 h. Moreover, the “elimination t1/2” value in series [1] (20 μg teriparatide subcutaneous injection, mean) was “approximately 1 h”. In series [1] (sc, 20 ug, healthy female volunteers aged over 55 y, single 20 μg teriparatide subcutaneous injection into abdomen (Forsteo pen), plasma ELISA, mean of n = 7, read-out: t½), the half-life was 64.8 min. For the same compound, the “absolute bioavailability of subcutaneous injection” value in series [2] (human subjects, subcutaneous injection into the abdominal wall, intravenous injection 100%) is on record as “up to 95%”. Besides, in series [2] (setting [5]), the “prolongation in the time to reach peak concentration (Tmax), thigh as opposed to abdomen” value is 1.5 min; the “reduction in maximum plasma teriparatide concentrations (Cmax), thigh as opposed to abdomen” value is listed as 18%; the “slower rate of absorption, injection into the thigh as opposed to the abdomen” value is listed as 21%.
Take “hGH: human growth hormone (MW 22kDa), given nasally with Solutol HS15 in earlier studies”: the results for the relative bioavailability in series [3] and in series [4] were 49% and “about 3%”, respectively.

As usually defined, the Tmax is the time at which the peak concentration occurs. The term Cmax denotes the highest concentration seen after dosing.
